From article PMC6704710, “Preclinical evaluation of 3D185, a novel potent inhibitor of FGFR1/2/3 and CSF-1R, in FGFR-dependent and macrophage-dominant cancer models” (Journal of Experimental & Clinical Cancer Research : CR, 2019)

How the values were obtained:
[1] = tested on: PBMC (CSF-2); test: Macrophage survival (CCK-8); type: cell-based; conditions: Homo sapiens, 168 h, 7 days
Protocol: (§1) Murine bone marrow-derived macrophages (BMDMs) and PBMCs were used for cell viability studies. BMDMs were harvested by flushing the tibias and femurs of 6- to 8-week-old C57BL/6 mice and depleting red blood cells (RBCs) by RBC lysis (Biogems). For BMDM survival, the cells were cultured for 7 days in RPMI 1640 containing 10% fetal bovine serum (FBS), 100 U/mL penicillin, 100 μg/mL streptomycin and 100 ng/mL mouse CSF-1 (or CSF-2) with or without the tested compounds. PBMCs were obtained from HemaCare and cultured for 7 days in RPMI 1640 containing 10% fetal bovine serum (FBS), 100 U/mL penicillin, 100 μg/mL streptomycin and 100 ng/mL human CSF-1 (or CSF-2) with or without the tested compounds. Cell viability was measured using the CCK-8 assay. For IL-4/IL-13-induced macrophage survival analysis, viable cells were counted by trypan blue exclusion.

[2] = tested on: CSF-1-differentiated macrophages induced RT112 cell migration; test: Tumor cell migration assay (Transwell co-culture); type: cell-based, human; conditions: 25 nM, 24 h
[3] = tested on: BMDM (CSF-2); test: Macrophage survival (CCK-8); type: cell-based, murine; conditions: 7 days
Protocol: as §1

[4] = tested on: MC38 colorectal adenocarcinoma model; test: In vivo antitumor activity, MC38 model; set-up: species or system C57BL/6 mice; conditions: oral once daily 23 days
Protocol: For the MC38 xenograft model, 6-week-old C57BL/6 mice were housed and maintained under specific pathogen-free conditions. Tumor cells (2 × 10^6 in 200 μL) were injected subcutaneously (s.c.) into the right flanks of C57BL/6 mice. […] The tumors were measured twice per week using a microcaliper. Tumor volume (TV) was calculated as follows: TV = (length × width^2)/2. In addition, the individual relative tumor volume (RTV) was calculated as follows: RTV = Vt / V0, where Vt is the volume on a particular day and V0 is the volume at the beginning of the treatment. The RTV is shown on the indicated days as the […] ± SEM for the indicated groups of mice.

[5] = tested on: BMDM (CSF-1); test: Macrophage survival (CCK-8); type: cell-based, murine; conditions: 7 days, mean ± SD
Protocol: (§2) Murine bone marrow and human monocytes were stimulated with CSF-1 for 7 days together with the indicated inhibitor, and cell viability was evaluated by the CCK-8 assay. The IC50 values are shown as the mean ± SD (nM) from two independent tests. B-E, To test the impact of 3D185 on the polarization of CSF-1-induced macrophages, murine bone marrow cells and human monocytes were induced to mature into macrophages with CSF-1 for 7 days and then stimulated with CSF-1, IL-4 and IL-13 for an additional 48 h. The expression of the markers MHC-II (b), CD86 (c), and CD206 (d) on induced murine macrophages and CD206 expression on induced human macrophages (e) were determined by flow cytometry, and the mean fluorescence intensity (MFI) was analyzed with FlowJo. Representative data from two independent experiments. f Murine bone marrow cells (left panel) and human monocytes (right panel) were induced to mature into macrophages with CSF-1 for 7 days and then stimulated with CSF-1, IL-4 and IL-13 and treated with vehicle or the indicated inhibitor for an additional 48 h. Then, all cells were collected to count viable cells by staining with trypan blue
as §1

[6] = tested on: PBMC (CSF-1); test: Macrophage survival (CCK-8); type: cell-based; conditions: Homo sapiens, 168 h, 7 days, mean ± SD
Protocol: as §2
Murine bone marrow-derived macrophages (BMDMs) and PBMCs were used for cell viability studies. […] Cell viability was measured using the CCK-8 assay. For IL-4/IL-13-induced macrophage survival analysis, viable cells were counted by trypan blue exclusion.

[7] = tested on: M-NFS-60; test: Cell proliferation assay; type: cell-based, mouse; conditions: 72 h, mean ± SD
Protocol: (§3) The cancer cell lines indicated in Figure 3 were seeded in 96-well plates at a low density in growth medium. The next day, appropriate controls or the designated concentrations of the compounds were added to each well, and the cells were incubated for 72 h. HUVECs (passage 3) were seeded in 96-well plates in growth medium overnight and transferred to serum-free medium for 24 h. The following day, appropriate controls or the designated concentrations of the compounds were added to each well, and 100 ng/mL growth factor (bFGF or VEGF) was added to the indicated wells. The cells were incubated for 48 h. Finally, cell proliferation was determined using a sulforhodamine B (SRB) assay or a cell counting kit-8 (CCK-8) assay. […] IC50 values for proliferation curves were calculated using a 4-parameter logistic nonlinear regression model with SoftMax Pro Software (Molecular Devices, San Jose, USA).

[8] = tested on: HUH7; test: Cell proliferation assay; type: cell-based, human; conditions: 72 h, mean ± SD
Protocol: as §3

[9] = tested on: UMUC14; test: Cell proliferation assay; type: cell-based, human; conditions: 72 h, mean ± SD
Protocol: as §3

[10] = tested on: OPM2; test: Cell proliferation assay; type: cell-based, human; conditions: 72 h, mean ± SD
Protocol: as §3

[11] = tested on: SUM52PE; test: Cell proliferation assay; type: cell-based, human; conditions: 72 h, mean ± SD
Protocol: as §3

[12] = tested on: SNU16; test: Cell proliferation assay; type: cell-based, human; conditions: 72 h, mean ± SD
Protocol: as §3

[13] = tested on: KG-1; test: Cell proliferation assay; type: cell-based, human; conditions: 72 h, mean ± SD
Protocol: as §3

[14] = tested on: NCI-H1581; test: Cell proliferation assay; type: cell-based, human; conditions: 72 h, mean ± SD
Protocol: as §3

[15] = tested on: NCI-H716; test: Cell proliferation assay; type: cell-based, human; conditions: 72 h, mean ± SD
Protocol: as §3

[16] = tested on: KATOIII; test: Cell proliferation assay; type: cell-based, human; conditions: 72 h, mean ± SD
Protocol: as §3

[17] = tested on: RT112; test: Cell proliferation assay; type: cell-based, human; conditions: 72 h, mean ± SD
Protocol: as §3

| Compound | IC50 [1] | effect on macrophage-induced RT112 cell migration [2] | IC50 ([3]; Mus musculus, BMDM, 168 h) | effect on MC38 tumor growth [4] | IC50 ([5]; Mus musculus, BMDM, 168 h) | IC50 [6] | IC50 [7] | IC50 [3] | IC50 [8] | IC50 [9] | IC50 [10] | IC50 [11] | IC50 [12] | IC50 [13] | IC50 [14] | IC50 [15] | IC50 [16] | IC50 [17] | IC50 [5] |
| --- | --- | --- | --- | --- | --- | --- | --- | --- | --- | --- | --- | --- | --- | --- | --- | --- | --- | --- | --- |
| FC(F)(F)c1ccc(CNc2ccc(Cc3c[nH]c4ncc(Cl)cc34)cn2)cn1 [PLX3397, reference compound] | > 1000 nM | no inhibitory effect | > 1000 nM | delayed tumor growth | 195 ± 48.2 nM | 220 ± 38.6 nM | – | – | – | – | – | – | – | – | – | – | – | – | – |
| AZD4547 [reference compound] | – | – | – | – | – | – | 1230 ± 184 nM | > 1000 nM | 284 ± 22.5 nM | 52.9 ± 4.6 nM | 33 ± 7.6 nM | 15.5 ± 2.4 nM | 2.7 ± 0.4 nM | 3 ± 0.3 nM | 43.8 ± 8.6 nM | 7 ± 0.9 nM | 15.1 ± 2.9 nM | 83.3 ± 6.4 nM | 883 ± 133 nM |
